This passage reports IC50 results from patent US8765755B2, “N-containing heterocyclic compounds” (YM Biosciences Australia Pty Ltd, priority 2007, dated 2014).

In one experiment the target is T1, human JAK2 (Homo sapiens, UniProt O60674).
T1 construct: The kinase domain of human JAK2 was amplified; GST (N); made in house; host or cells: Sf9 (Spodoptera frugiperda) insect cells, baculovirus
In words: JAK2 kinase enzyme assay (Alphascreen). Format: biochemical. To be noted: 80 or 625 um ATP. The method, then:
(§1) For screening purposes, compounds (in 100% DMSO) were warmed at 37 degrees for at least 20 minutes before use. A […] stock was initially made in assay buffer, where the final concentration of DMSO was 0.3%. The stocks were then diluted in 384 well Optiplates (Packard) where the final concentration of the compound was 5 μM.
The kinase domain of human JAK2 was amplified from U937mRNA using the polymerase chain reaction with the following primers: […]
The JAK2 PCR products were cloned into the pDest20 destination vector (Gibco). The JAK2 plasmid was then transformed into competent DH10Bac cells (Gibco), and the recombinant baculovirus was prepared via Sf9 insect cell transfection.
(§2) Baculovirus preparations from each of the JAK family members were infected into one litre of Sf9 (Spodoptera frugiperda) cells (Invitrogen) grown in SF900II serum free medium (Invitrogen) to a cell density of approximately 2×10^6 cells/ml. Cells were infected with virus at a cell culture to virus stock ratio of 20:1. Cells were harvested and lysed 48 hours post infection. The GST-tagged JAK kinase domains were purified by affinity chromatography on a GSH agarose column (Scientifix).
(§3) Kinase assays were performed in 384 well Optiplates (Packard) using an Alphascreen Protein Tyrosine KinaseP100 detection kit The compounds were pre-incubated with affinity purified PTK domain in the presence of phosphotyrosine assay buffer (10 mM HEPES, pH 7.5, 100 mM MgCl2, 25 mM NaCl, 200 mM sodium vanadate and 0.1% Tween 20) for 20 minutes. The compounds were then incubated with substrate in the presence of either 80 or 625 um ATP for 60 or 90 minutes. The substrate used was either susbtrate-1 with the sequence biotin-EGPWLEEEEEAYGWMDF-NH2 [SEQ. ID. NO. 13] (final concentration 111 μM) or susbtrate-2 substrate with the sequence biotin-EQEDEPEGDYFEWLEPE (final concentration 133 μM). Alphascreen phosphotyrosine acceptor beads followed by streptavidin donor beads at a concentration of 1/100 in stop buffer were added to each well under subdued light and incubated for 2-3 hours. The Alphascreen plates were read on a Packard Fusion Alpha instrument.
For orientation: Bead proximity is the source of the signal in Alpha formats.

The target of the next experiment is T2, human JAK3 (Homo sapiens, UniProt P52333).
T2 construct: The kinase domain of human JAK3 was amplified; GST (N); made in house; host or cells: Sf9 (Spodoptera frugiperda) insect cells, baculovirus
Description: JAK3 kinase enzyme assay (Alphascreen). Format: biochemical. The settings on record: 80 or 625 um ATP. The method, then: as §1
The kinase domain of human JAK3 was amplified from U937mRNA using the polymerase chain reaction with the following primers: […]
The JAK3 PCR products were cloned into the pDest20 destination expression vector (Gibco). The JAK3 plasmid was then transformed into competent DH10Bac cells (Gibco), and the recombinant baculovirus was prepared via Sf9 insect cell transfection.
as §2, §3

The subject of a further experiment is BafT_J2. Description: Cellular screening, BaF3 TEL:JAK2 cells (Alamar Blue). The settings on record: Mus musculus, 40 hr incubation. Format: cell-based. The method, then:
(§4) For screening purposes, compounds were diluted in 96 well plates at a concentration of 20 μM. Plates were warmed at 37° C. for 30 minutes before the assay was performed.
(§5) The coding region encompassing nucleotides 1-487 of TEL was amplified by PCR using the oligonucleotides 5TEL (5′-GGAGGATCCTGATCTCTCTCGCTGTGAGAC-3′) [SEQ ID NO 14] and 3TEL (5′-AGGC GTCGACTTCTTCTTCATGGTTCTG-3′) [SEQ ID NO 15] and U937 mRNA as a template. A BamHI restriction site was incorporated into the 5TEL primer, and a Sal I restriction site was incorporated into the 3TEL primer. The regions encompassing the kinase domain of JAK2 (nucleotides 2994-3914; JAK2F 5′-ACGC GTCGACGGTGCCTTTGAAGACCGGGAT-3′ [SEQ ID NO 16]; JAK2R 5′-ATAGTTTAGCGGCCGCTCAGAATGAAGGTCATTT-3′) [SEQ ID NO 17] and JAK3 (nucleotides 2520-3469; JAK3F 5′-GAAGTCGACTATGCCTGCCAAGACCCCACGATCTT-3′) [SEQ ID NO 18] were generated by PCR using Taq DNA polymerase (Gibco/BRL) and U937 mRNA as a template. A Sal I restriction site was incorporated into the forward primer of JAK2 and JAK3, a Not I site was incorporated into the JAK2 reverse primer and a Xba I site was added to the reverse primer of JAK3.
A TEL/Jak2 fusion was generated by digestion of the TELPCR product with BamH I/Sal I restriction enzymes, digestion of the JAK2 PCR product with Sal I/Not I restriction enzymes, followed by ligation and subcloning of the ligation product into the mammalian expression Vector pTRE 2 (Clontech), which was prepared by digestion with BamH I-Not I restriction enzymes, to give the TEL/Jak2 fusion plasmid pTELJAK2.
(§6) The growth factor dependant myelomonocytic cell line BaF3 bearing the pTET-off plasmid (Clontech) was transfected with either pTELJAK2 or pTELJAK3, and the transfected cells were selected for growth-factor independent cell growth. The BaF3 wild-type cells were cultured in DMEM containing 10% FCS, 10% WEHI 3B conditioned medium. The BaF3 TELJAK cells ([…]) were cultured in DMEM 10% Tet-System Approved FBS (without WEHI 3B conditioned medium).
(§7) Cell suspensions were prepared by harvesting cells from culture. (the cells used in this test were in late log phase growth with high viability.) Cells were diluted in the appropriate growth medium, as described above, to 1.1× final concentration (from 50,000 cell/mL to 200,000 cell/mL, depending on cell line).
(§8) Compounds to be tested were added (10 μL, 10× final concentration) to a flat bottomed 96-well plate. The cellular suspension (90 μL per well) was then added, and the plate incubated for 40 hr at 37° C., 5% CO2. Alamar Blue 10 μL per well was added and the plates returned to the incubator for a further 4-6 hours. The plates were then read at 544 nm.

The test system of the next experiment is BAF3wt. Description: Cellular screening, BaF3 wild-type cells (Alamar Blue). It counts as cell-based. The settings on record: Mus musculus, 40 hr incubation. On the procedure:
as §4, §6, §7, §8
A general note: Resazurin is reduced to fluorescent resorufin, in cell work by metabolically active cells.

In the next experiment the test system is BafT_J3. In words: Cellular screening, BaF3 TEL:JAK3 cells (Alamar Blue). The settings on record: Mus musculus, 40 hr incubation. It counts as cell-based. The method, then: as §4, §5
The TEL/Jak3 fusion was prepared by ligation of the JAK3 Sal I/Not I cleaved kinase domain PCR product with the BamH I/Sal I restriction digested TEL product, followed by ligation of the ligation product into the BamH I/Not I digested pTRE2, to give the TEL/Jak3 fusion plasmid pTELJAK3.
as §6, §7, §8

The next experiment has as its system CTLL2. Description: Cellular screening, CTLL2 cells (Alamar Blue). Format: cell-based. The settings on record: Mus musculus, CTLL-2, 40 hr incubation. On the procedure: as §4, §7, §8

T2 sequence (P52333 822-1111 limits assumed): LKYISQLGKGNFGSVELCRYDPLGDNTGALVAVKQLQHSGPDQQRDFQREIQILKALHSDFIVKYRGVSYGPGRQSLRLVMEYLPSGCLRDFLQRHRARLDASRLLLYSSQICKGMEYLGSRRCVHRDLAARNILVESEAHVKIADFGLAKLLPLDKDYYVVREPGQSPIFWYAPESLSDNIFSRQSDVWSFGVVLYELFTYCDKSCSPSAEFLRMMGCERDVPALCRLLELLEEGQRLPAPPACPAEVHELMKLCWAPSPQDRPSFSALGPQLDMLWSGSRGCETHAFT
T1 sequence (O60674 849-1124 limits assumed): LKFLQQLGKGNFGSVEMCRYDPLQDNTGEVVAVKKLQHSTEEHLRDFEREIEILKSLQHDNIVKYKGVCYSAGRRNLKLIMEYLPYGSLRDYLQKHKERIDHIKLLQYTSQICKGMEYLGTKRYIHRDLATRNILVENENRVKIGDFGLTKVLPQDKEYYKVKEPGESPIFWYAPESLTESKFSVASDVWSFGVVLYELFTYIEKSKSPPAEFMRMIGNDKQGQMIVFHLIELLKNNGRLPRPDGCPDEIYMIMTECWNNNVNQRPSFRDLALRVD

Usually IC50 stands for the concentration at which inhibition is half-maximal. The low end stands for inhibition by little substance, the high end for a need for much substance. Consider `N#CCNC(=O)c1cccc(-c2csc3cnc(Nc4ccc(CN5CCOCC5)cc4)nc23)c1` [Compound 70, N-(cyanomethyl)-3-(2-(4-(morpholinomethyl)phenylamino)thieno[3,2-d]pyrimidin-7-yl)benzamide], for which the IC50 against human JAK2 is less than 100 nM; at human JAK3 it was less than 100 nM; with BafT_J2, less than 1000 nM; with BAF3wt it was less than 1000 nM; with BafT_J3 it was less than 1000 nM; with CTLL2 it was less than 5000 nM.
Turning to `OCc1cccc(-c2csc3cnc(Nc4ccc(N5CCOCC5)cc4)nc23)c1` [Compound 89, (3-(2-(4-morpholinophenylamino)thieno[3,2-d]pyrimidin-7-yl)phenyl)methanol], the IC50 on human JAK2 was less than 100 nM; against human JAK3, less than 100 nM; in the experiment on BafT_J2, less than 1000 nM; with BAF3wt, less than 1000 nM; with BafT_J3, less than 1000 nM; in the experiment with CTLL2, less than 1000 nM.
Take `CS(=O)(=O)Nc1cccc(-c2csc3cnc(Nc4ccc(CN5CCOCC5)cc4)nc23)c1` [Compound 83, N-(3-(2-(4-(morpholinomethyl)phenylamino)thieno[3,2-d]pyrimidin-7-yl)phenyl)methanesulfonamide]: the IC50 against human JAK2 was less than 100 nM; on human JAK3 it was less than 100 nM; in the experiment with BafT_J2, less than 1000 nM; in the experiment with BAF3wt it was less than 1000 nM; in the experiment on BafT_J3 it was less than 1000 nM; in the experiment on CTLL2, less than 1000 nM.
With `COc1ncccc1-c1csc2cnc(Nc3ccc(N4CCOCC4)cc3)nc12` [Compound 45, 7-(2-methoxypyridin-3-yl)-N-(4-morpholinophenyl)thieno[3,2-d]pyrimidin-2-amine], the IC50 was less than 100 nM on human JAK2; less than 100 nM against human JAK3; less than 1000 nM in the experiment on BafT_J2; less than 1000 nM in the experiment on BAF3wt; less than 1000 nM in the experiment on BafT_J3; less than 1000 nM in the experiment on CTLL2.
On to `CCN1CCN(Cc2ccc(Nc3ncc4scc(-c5cccc(S(=O)(=O)NC(C)(C)C)c5)c4n3)cc2)CC1` [Compound 68, N-tert-butyl-3-(2-(4-((4-ethylpiperazin-1-yl)methyl)phenylamino)thieno[3,2-d]pyrimidin-7-yl)benzenesulfonamide], for which the IC50 is less than 100 nM on human JAK2; less than 500 nM on human JAK3; less than 1000 nM with BafT_J2; less than 1000 nM with BAF3wt; less than 1000 nM with BafT_J3; less than 5000 nM in the experiment with CTLL2.
As for `CC(C)(C)NS(=O)(=O)c1cccc(-c2csc3cnc(Nc4ccc(CN5CCOCC5)cc4)nc23)c1` [Compound 58, N-tert-butyl-3-(2-(4-(morpholinomethyl)phenylamino)thieno[3,2-d]pyrimidin-7-yl)benzenesulfonamide], the IC50 at human JAK2 is less than 100 nM; against human JAK3, less than 500 nM; in the experiment on BafT_J2, less than 1000 nM; with BAF3wt, less than 1000 nM; with BafT_J3, less than 1000 nM; in the experiment on CTLL2, less than 1000 nM.
Take `CCc1ccccc1-c1csc2cnc(Nc3cccc(N)c3)nc12` [Compound 22, N1-(7-(2-ethylphenyl)thieno[3,2-d]pyrimidin-2-yl)benzene-1,3-diamine]: the 50% inhibitory concentration (IC50) on human JAK2 is less than 100 nM; against human JAK3, less than 100 nM; with BafT_J2, less than 1000 nM; with BAF3wt, less than 5000 nM; with BafT_J3, less than 5000 nM; in the experiment with CTLL2 it was less than 1000 nM.
`COc1ncc(-c2csc3cnc(Nc4ccc(OC)c(OC)c4)nc23)c(OC)n1` [Compound 56, N-(3,4-dimethoxyphenyl)-7-(2,4-dimethoxypyrimidin-5-yl)thieno[3,2-d]pyrimidin-2-amine]: the IC50 at human JAK2 is less than 100 nM; at human JAK3 it was less than 100 nM; in the experiment on BafT_J2 it was less than 5000 nM; in the experiment with BAF3wt, less than 5000 nM; in the experiment with BafT_J3 it was less than 5000 nM; with CTLL2 it was less than 5000 nM.
In the case of `Nc1ccc(-c2csc3cnc(Nc4ccc(N5CCOCC5)cc4)nc23)cc1[N+](=O)[O-]` [Compound 44, 7-(4-amino-3-nitrophenyl)-N-(4-morpholinophenyl)thieno[3,2-d]pyrimidin-2-amine], the IC50 was less than 100 nM at human JAK2; less than 100 nM against human JAK3; less than 1000 nM with BafT_J2; less than 5000 nM in the experiment with BAF3wt; less than 5000 nM with BafT_J3; less than 5000 nM in the experiment with CTLL2.
On to `C=CC(=O)Nc1cccc(-c2csc3cnc(Nc4ccc(N5CCOCC5)cc4)nc23)c1` [Compound 5, N-(3-(2-(4-morpholinophenylamino)thieno[3,2-d]pyrimidin-7-yl)phenyl)acrylamide], for which the IC50 at human JAK2 was less than 100 nM; against human JAK3 it was less than 100 nM; in the experiment on BafT_J2 it was less than 5000 nM; in the experiment on BAF3wt, less than 1000 nM; in the experiment with BafT_J3 it was less than 1000 nM; with CTLL2, less than 1000 nM.
Regarding `OCc1ccc(-c2csc3cnc(Nc4ccc(N5CCOCC5)cc4)nc23)cc1` [Compound 90, (4-(2-(4-morpholinophenylamino)thieno[3,2-d]pyrimidin-7-yl)phenyl)methanol], the IC50 against human JAK2 was less than 100 nM; at human JAK3 it was less than 100 nM; with BafT_J2, less than 1000 nM; with BAF3wt, less than 1000 nM; with BafT_J3, less than 1000 nM; with CTLL2, less than 1000 nM.
In the case of `CC(=O)Nc1cccc(-c2csc3cnc(Nc4ccc(CN5CCOCC5)cc4)nc23)c1` [Compound 81, N-(3-(2-(4-(morpholinomethyl)phenylamino)thieno[3,2-d]pyrimidin-7-yl)phenyl)acetamide], the IC50 on human JAK2 is less than 100 nM; at human JAK3 it was less than 500 nM; with BafT_J2, less than 1000 nM; in the experiment with BAF3wt, less than 1000 nM; in the experiment with BafT_J3, less than 1000 nM; with CTLL2, less than 1000 nM.
